Data taken from US20080019949A1, “DIFFERENTIATION OF STEM CELLS FROM UMBILICAL CORD MATRIX INTO […] CELLS” (UNIVERSITY OF KANSAS, priority 2006, published 2008).

Experiments:
[1] = system: differentiated and undifferentiated HUMCs; experiment: Cellular uptake of Indocyanine Green (ICG); assay type: cell-based, human; details: 1 mg/mL ICG concentration
Description: Cellular uptake of Indocyanine Green (ICG.): ICG was dissolved to an initial concentration of 5 mg/mL in solvent. The solution was then diluted to 1 mg/mL in maturation media and added to the culture dish and incubated at 37° C. in a humidified incubator at 5% CO2 for 10-15 minutes. The cells were washed thoroughly with sterile PBS and then visualized under a light microscope. After examination, the PBS was then removed and maturation media was added and the cells incubated at 37° C. in a humidified incubator at 5% CO2 for ˜4-6 hours to confirm elimination of ICG.

[2] = system: differentiated HUCM cells (hepatocyte-like cells)
Description: RNA isolation and Reverse Transcription Polymerase Chain Reaction (RT-PCR.): RNA was isolated from cells on RNeasy Quick spin columns (Qiagen, Valencia, Calif.) and converted to cDNA using random hexamers and SuperScript II reverse transcriptase (Invitrogen, Carlsbad, Calif.). PCR was performed using a BioRad I-Cycler. Products were resolved by 2% agarose gel electrophoresis and visualized by ethidium bromide staining. Expression of numerous hepatocyte-specific genes was analyzed, including CK18, cytokeratin 18; HNF3-β, hepatocyte nuclear factor 3β; CK19, cytokeratin 19; AFP, alpha fetoprotein; Alb, albumin; and CYP2B6, cytochrome P450 2 family.
Cytochromes were induced by treatment with; Rifamicin (RIF), 20 um; Penobarbital (PB), 2 mM; forskolin, 50 uM; 8-Bromo-cAMP, 1 mM (Tocris, Ellisville, Mo.); and vehicle controls for 24-hour period. mRNA was then harvested and then analyzed by RT-PCR.

Row | Structure (SMILES) | adverse effects on cells [1] | expression of inducible markers (CAR, PXR, PGC-1, PEPCK, PPAR-γ, CYP3A4, HNF4α) [2] | CYP3A4 expression (RT-PCR) [2] | PXR expression (RT-PCR) [2]
1 | CC1(C)C(/C=C/C=C/C=C/C=C2\N(CCCCS(=O)(=O)O)c3ccc4ccccc4c3C2(C)C)=[N+](CCCCS(=O)(=O)[O-])c2ccc3ccccc3c21 [ICG, Indocyanine Green] | no adverse effects were observed |  |  | 
2 | C=C[C@@]1(C)CC(=O)[C@]2(O)[C@@]3(C)[C@@H](O)CCC(C)(C)[C@@H]3[C@H](O)[C@H](OC(C)=O)[C@@]2(C)O1 [forskolin] |  | showed a number of hepatocyte-inducible genes or an increase in expression levels |  | 
3 | CCC1(c2ccccc2)C(=O)NC(=O)NC1=O [PB, phenobarbital] |  | showed a number of hepatocyte-inducible genes or an increase in expression levels | induced | induced
